Source: patent US12358902B2, “5-(2,5-bis(4-chloro-2-isopropylphenyl)thiophen-3-yl)-1H-tetrazole for the topical treatment of bacterial infections” (DENOVAMED INC., priority 2017, dated 2025)

How the values were obtained:
MRSA = experiment: cellulitis model, intra-dermal MRSA; assay type: in vivo, SKH1 mice; settings: topical formulation for 7 days
Protocol: SKH1 mice were injected intra-dermally with MRSA (N=15). 5 mice received neutral control topical formulation for 7 days. 5 mice received a topical formulation containing mupirocin for 7 days. 5 mice received a topical formulation containing 5-(2,5-bis(4-chloro-2-isopropylphenyl)thiophen-3-yl)-1H-tetrazole for 7 days. Lesion area was measured each day. After 7 days, terminal colony forming units (CFUs) were measured to determine microbiological efficacy.

[1] = system: mupirocin resistant S. aureus strains (MMX 1013, MMX 7779, MMX 7782, MMX 8845, MMX 9202); experiment: MIC versus mupirocin resistant S. aureus panel; assay type: cell-based; settings: Staphylococcus aureus; mupirocin resistant S. aureus MMX 1013, MMX 7779, MMX 7782, MMX 8845, MMX 9202
Protocol: (§1) Using a broth microdilution assay according to Clinical Laboratory Standards Institute (CSLI) guidelines, we tested 5-(2,5-bis(4-chloro-2-isopropylphenyl)thiophen-3-yl)-1H-tetrazole (“Test Article” in below table) to establish MICs against a broad range of MDR bacteria and noted substantive activity versus methicillin-resistant Staphylococcus aureus (MRSA), vancomycin-resistant Enterococcus (VRE) and Streptococcus spp. Antimicrobial susceptibility testing was performed by a microdilution broth assay according to CLSI guidelines. The inoculum was prepared from stationary-phase cultures diluted in water. Microtiter plate wells received aliquots of 100 μL of the compound diluted in Mueller-Hinton II cation adjusted media. The final concentration of compound typically ranged from 250 to 0.125 μg/ml in serial two-fold dilutions. In addition to the test compound, growth and sterility controls were included, along with DMSO vehicle control rows. The microtiter plates were inoculated with 5×10^5 bacteria and incubated overnight at 35° C. in a humidified atmosphere.

E. coli AcpS = molecular target: T1, E. coli AcpS (Escherichia coli, UniProt P24224); experiment: MIC shift upon AcpS over-expression in E. coli strain D22; assay type: cell-based; settings: E. coli D22 over-expressing E. coli AcpS, IPTG inducible
T1 construct: expressed in transfected cells; host or cells: E. coli strain D22 (porous outer membrane)
T1 sequence (P24224 whole entry): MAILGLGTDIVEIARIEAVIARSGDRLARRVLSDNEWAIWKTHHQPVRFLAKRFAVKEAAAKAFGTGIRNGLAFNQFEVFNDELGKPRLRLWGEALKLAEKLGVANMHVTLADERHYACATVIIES
Source text: (§2) To determine if AcpS inhibition is the main in vivo target that results in bacterial killing by 5-(2,5-bis(4-chloro-2-isopropylphenyl)thiophen-3-yl)-1H-tetrazole, we over-expressed AcpS in bacteria. An E. coli strain genetically engineered to have a porous outer membrane (strain D22) was transformed with a plasmid expressing either E. coli or S. aureus AcpS under control of an IPTG inducible promoter.

S. aureus AcpS = experiment: as above; assay type: cell-based; settings: E. coli D22 over-expressing S. aureus AcpS, IPTG inducible
Source text: as §2

[2] = system: S. aureus MRSA MISA MU3 NRS2; experiment: broth microdilution MIC (CLSI); assay type: cell-based; settings: Staphylococcus aureus; S. aureus MRSA MISA MU3 NRS2; read-out: Antibacterial activity (MIC)
Protocol: as §1

[3] = system: S. aureus MRSA clinical isolate multi resistant; experiment: broth microdilution MIC (CLSI); assay type: cell-based; settings: Staphylococcus aureus; S. aureus MRSA clinical isolate multi resistant; read-out: Antibacterial activity (MIC)
Protocol: as §1

[4] = system: S. aureus MRSA clinical isolate ciprofloxacin resistant; experiment: broth microdilution MIC (CLSI); assay type: cell-based; settings: Staphylococcus aureus; S. aureus MRSA clinical isolate ciprofloxacin resistant; read-out: Antibacterial activity (MIC)
Protocol: as §1

[5] = system: S. aureus MRSA USA200 epidemic strain; experiment: broth microdilution MIC (CLSI); assay type: cell-based; settings: Staphylococcus aureus; S. aureus MRSA USA200 epidemic strain; read-out: Antibacterial activity (MIC)
Protocol: as §1

[6] = system: E. faecium ATCC51299 vancomycin resistant; experiment: broth microdilution MIC (CLSI); assay type: cell-based; settings: Enterococcus faecium, read-out: Antibacterial activity (MIC)
Protocol: as §1

[7] = system: E. faecalis ATCC51599 vancomycin resistant; experiment: broth microdilution MIC (CLSI); assay type: cell-based; settings: Enterococcus faecalis, read-out: Antibacterial activity (MIC)
Protocol: as §1

[8] = system: S. aureus MRSA USA300 epidemic strain; experiment: broth microdilution MIC (CLSI); assay type: cell-based; settings: Staphylococcus aureus; S. aureus MRSA USA300 epidemic strain; read-out: Antibacterial activity (MIC)
Protocol: as §1

[9] = system: S. aureus MRSA MISA MU50 NRS1; experiment: broth microdilution MIC (CLSI); assay type: cell-based; settings: Staphylococcus aureus; S. aureus MRSA MISA MU50 NRS1; read-out: Antibacterial activity (MIC)
Protocol: as §1

[10] = system: S. epidermidis NRS7 vancomycin intermediate; experiment: broth microdilution MIC (CLSI); assay type: cell-based; settings: Staphylococcus epidermidis, read-out: Antibacterial activity (MIC)
Protocol: as §1

[11] = system: S. aureus MRSA USA100 epidemic strain; experiment: broth microdilution MIC (CLSI); assay type: cell-based; settings: Staphylococcus aureus; S. aureus MRSA USA100 epidemic strain; read-out: Antibacterial activity (MIC)
Protocol: as §1

S. aureus MRSA ATCC43300 = experiment: broth microdilution MIC (CLSI); assay type: cell-based; settings: Staphylococcus aureus; S. aureus MRSA ATCC43300; read-out: Antibacterial activity (MIC)
Protocol: as §1

[12] = system: S. aureus MRSA clinical isolate from Manchester; experiment: broth microdilution MIC (CLSI); assay type: cell-based; settings: Staphylococcus aureus; S. aureus MRSA clinical isolate from Manchester; read-out: Antibacterial activity (MIC)
Protocol: as §1

[13] = system: S. aureus MRSA clinical isolate penicillin and erythromycin resistant; experiment: broth microdilution MIC (CLSI); assay type: cell-based; settings: Staphylococcus aureus; S. aureus MRSA clinical isolate penicillin and erythromycin resistant; read-out: Antibacterial activity (MIC)
Protocol: as §1

CC(C)c1cc(Cl)ccc1-c1cc(-c2nnn[nH]2)c(-c2ccc(Cl)cc2C(C)C)s1 [Test Article, 5-(2,5-bis(4-chloro-2-isopropylphenyl)thiophen-3-yl)-1H-tetrazole]
0.5 µg/mL: MIC [3] | MIC [5] | MIC [7] | MIC [8] | MIC [9] | MIC (S. aureus MRSA ATCC43300) | MIC [12] | MIC [13]
16 fold: shift of MIC to higher concentration upon increased AcpS expression (S. aureus AcpS)
32 fold: shift of MIC to higher concentration upon increased AcpS expression (E. coli AcpS)
1 µg/mL: MIC [2] | MIC [4] | MIC [6] | MIC [10] | MIC [11]
2 µg/mL: MIC [1]
significantly reduce: terminal CFU count (MRSA; FIG. 2A) | lesion area (MRSA; FIG. 2B)
